Key:
Type in all cases: cell-based, human
Bax = Bax level assay; settings: MCF-7 cells; for Bax Fold Change: versus untreated control
Description: (§1) Additionally, the effects of compounds 12 and 17 on the levels of caspase-8, Bax, and Bacl-2 in the MCF-7 cancer cell line and staurosporine as a control were examined. […]
Cells were obtained from American Type Culture Collection, cells were grown in RPMI 1640 containing 10% fetal bovine serum at 37°C, stimulated with the compounds to be tested for caspase8, and lysed with Cell Extraction Buffer. This lysate was diluted in Standard Diluent Buffer over the range of the assay and measured for human active caspase-8 content. […]
4.2.5. Bax activation assay
Bring all reagents, except the human Bax-α Standard, to room temperature for at least 30 minutes prior to opening. The human Bax-α Standard solution should not be left at room temperature for more than 10 minutes. All standards, controls and samples should be run in duplicate. Refer to the Assay Layout Sheet to determine the number of wells to be used and put any remaining wells with the desiccant back into the pouch and seal the ziploc. Store unused wells at 4 °C. Pipet 100 μL of Assay Buffer into the S0 (0 pg/mL standard) wells. Pipet 100 μL of Standards #1 through #6 into the appropriate wells. Pipet 100 μL of the Samples into the appropriate wells. Tap the plate gently to mix the contents. Seal the plate and incubate at room temperature on a plate shaker for 1 hour at ~500 rpm. Empty the contents of the wells and wash by adding 400 μL of wash solution to every well. Repeat the wash 4 more times for a total of 5 washes. After the final wash, empty or aspirate the wells and firmly tap the plate on a lint free paper towel to remove any remaining wash buffer. Pipet 100 μL of yellow Antibody into each well, except the Blank. Seal the plate and incubate at room temperature on a plate shaker for 1 hour at ~500 rpm. Empty the contents of the wells and wash by adding 400 μL of wash solution to every well. Repeat the wash 4 more times for a total of 5 washes. After the final wash, empty or aspirate the wells and firmly tap the plate on a lint free paper towel to remove any remaining wash buffer. Add 100 μL of blue Conjugate to each well, except the Blank. Seal the plate and incubate at room temperature on a plate shaker for 30 minutes at ~500 rpm. Empty the contents of the wells and wash by adding 400 μL of wash solution to every well. Repeat the wash 4 more times for a total of 5 washes. After the final wash, empty or aspirate the wells and firmly tap the plate on a lint free paper towel to remove any remaining wash buffer. Pipet 100 μL of Substrate Solution into each well. Incubate for 30 minutes at room temperature on a plate shaker at ~500 rpm. Pipet 100 μL Stop Solution to each well. Blank the plate reader against the Blank wells, read the optical density at 450 nm. Calculate the average net Optical Density (OD) bound for each standard and sample by subtracting the average Blank OD from the average OD for each standard and sample.
Using linear graph paper, plot the Average Net OD for each standard versus Bax concentration in each standard. Approximate a straight line through the points. The concentration of Bax in the unknowns can be determined by interpolation. […]
Cover with a plate cover and incubate at room temperature, on a microplate shaker at 100 rpm if available, for 2 hours. Remove plate cover and empty the wells.
(§2) Wash microwell strips 3 times as described in step 2. Add 100 μL of diluted Streptavidin-HRP to all wells, including the blank wells. Cover with a plate cover and incubate at room temperature, on a microplate shaker at 100 rpm if available, for 1 hour. Remove plate cover and empty the wells.
(§3) Wash microwell strips 3 times as described in step 2. Proceed to the next step. Pipette 100 μl of mixed TMB Substrate Solution to all wells, including the blanks. Incubate the microwell strips at room temperature (18° to 25°C) for about 15 minutes, if available on a rotator set at 100 rpm.
Avoid direct exposure to intense light. […]

Bcl-2 = Bcl-2 level assay; settings: MCF-7 cells; for Bcl-2 Fold Reduction: versus untreated control
Description: as §1
4.2.6. Bcl-2inhibition assay
Mix all reagents thoroughly without foaming before use. Wash the microwells twice with approximately 300 μL Wash Buffer per well with thorough aspiration of microwell contents between washes. Take caution not to scratch the surface of the microwells. After the last wash, empty the wells and tap microwell strips on absorbent pad or paper towel to remove excess Wash Buffer. Use the microwell strips immediately after washing or place upside down on a wet absorbent paper for not longer than 15 minutes. […] Add 100 μL of Sample […]
Diluent in duplicate to all standard wells and to the blank wells. Prepare standard (1:2 dilution) in duplicate ranging from 32 ng/mL to 0.5 ng/mL. Add 100 μL of Sample Diluent, in duplicate, to the blank wells. Add 80 μL of Sample Diluent, in duplicate, to the sample wells. Add 20 μL of each Sample, in duplicate, to the designated wells. Add 50 μL of diluted biotin-conjugate to all wells, including the blank wells. Cover with a plate cover and incubate at room temperature, on a microplate shaker at 100 rpm if available, for 2 hours. Remove plate cover and empty the wells.
as §2, §3
Avoid direct exposure to intense light. The point, at which the substrate reaction is stopped, is often determined by the ELISA reader. Many ELISA readers record absorbance only up to 2.0
O.D. Therefore, the color development within individual microwells must be watched by the person running the assay and the substrate reaction stopped before positive wells are no longer properly detectable. Stop the enzyme reaction by quickly pipetting 100 μL of Stop Solution into each well, including the blank wells. It is important that the Stop Solution is spread quickly and uniformly throughout the microwells to completely inactivate the enzyme. Results must be read immediately after the Stop Solution is added or within one hour if the microwell strips are stored at 2 - 8°C in the dark. Read absorbance of each microwell on a spectrophotometer using 450 nm as the primary wavelength.
4.3. Statistical analysis
Computerized Prism 5 program was used to statistically analyzed data using one-way ANOVA test followed by Tukey’s as post ANOVA for multiple comparison at P ≤.05. Data were presented

caspase-8 = assay: Caspase-8 level assay; settings: MCF-7 cells; for Caspase-8 Fold Change: versus untreated control
Description: as §1
The solution in the wells should change from blue to yellow. Read the absorbance of each well at 450 nm having blanked the plate reader against a chromogen blank composed of 100 μl each of Stabilized Chromogen and Stop Solution. Read the plate within 2 hours after adding the Stop Solution. Use a curve fitting software to generate the standard curve. A four-parameter algorithm provides the best standard curve fit. Read the concentrations for unknown samples and controls from the standard curve. Multiply value(s) obtained for sample(s) by the appropriate dilution factor to correct for the dilution in step 3. Samples producing signals greater than that of the highest standard should be diluted in Standard Diluent Buffer and reanalyzed.
4.2.4. Caspase-8 activation assay
Cells were obtained from American Type Culture Collection, cells were grown in RPMI 1640 containing 10% fetal bovine serum at 37°C, stimulated with the compounds to be tested for caspase8, and lysed with Cell Extraction Buffer. This lysate was diluted in Standard Diluent Buffer over the range of the assay and measured for human active caspase-8 content. (Cells are Plated in a density of 1.2 – 1.8 × 10,000 cells/well in a volume of 100µl complete growth medium + 100 ul of the tested compound per well in a 96-well plate for 24 hours before the enzyme assay for Tubulin.). The absorbance of each microwell was read on a spectro-photometer at 450 nm. A standard curve is prepared from 7human Caspase-8 standard dilutions and human Caspase-8 concentration determined. […]

SMILES | Bax Conc (Bax) [pg/mL] | Bax Fold Change (Bax) | Bcl-2 Conc (Bcl-2) [ng/mL] | Bcl-2 Fold Reduction (Bcl-2) | Caspase-8 Conc (caspase-8) [ng/mL] | Caspase-8 Fold Change (caspase-8)
CN[C@@H]1C[C@H]2O[C@@](C)([C@@H]1OC)n1c3ccccc3c3c4c(c5c6ccccc6n2c5c31)C(=O)NC4 [Staurosporine, reference compound] | 280 | 35 | 1.10 | 5 | 1.80 | 20
COc1ccc(C2CC(c3ccc(OCC(=O)Nc4ccc(C5=NNC(c6ccc(OC)c(OC)c6)C5)cc4)cc3)=NN2)cc1 (stereo not drawn) [Compound 12, 2-(4-(5-(4-Methoxyphenyl)-4,5-dihydro-1H-pyrazol-3-yl)phenoxy)-N-(4-(5-(3,4-dimethoxyphenyl)-4,5-dihydro-1H-pyrazol-3-yl)phenyl)acetamide] | 296 | 37 | 1.05 | 5 | 1.87 | 21
COc1ccc(C2CC(c3ccc(NC(=O)COc4ccc(C5=NNC(c6ccc(OC)c(OC)c6)C5)cc4)cc3)=NN2)cc1 (stereo not drawn) [Compound 17, 2-(4-(5-(3,4-Dimethoxyphenyl)-4,5-dihydro-1H-pyrazol-3-yl)phenoxy)-N-(4-(5-(4-methoxyphenyl)-4,5-dihydro-1H-pyrazol-3-yl)phenyl)acetamide] | 285 | 35 | 1.15 | 4 | 1.77 | 20

From article PMC10218941, “Design, Synthesis, Antiproliferative Actions, and DFT Studies of New Bis–Pyrazoline Derivatives as Dual EGFR/BRAF^V600E Inhibitors” (International Journal of Molecular Sciences, 2023)
